pEC50, pKi: −log10 of the molar value. Starred links: 1 amine or outer side, 2 acyl side, 3 side chain; linkers in the order of their positions; H or OH if unused. Non-standard residues stand in square brackets, D forms with d. Residues, ends and D or L forms follow the SMILES beside them. Chg = N[C@H](C(=O)O)C1CCCCC1; Suc = O=C(CCC(=O)[*:2])[*:1]
Experiments:
[1] = tested on: Hepatitis C virus; experiment: Antiviral activity against HCV in replicon assay; assay type: functional, Hepacivirus hominis; settings: read-out: ED50 (the source's name)
[2] = Inhibition of HCV NS3 protease by FRET assay; parameters: species or system Hepacivirus hominis
[3] = biological target: NS3 (Hepatitis C virus, UniProt A3EZJ3); experiment: Inhibition of HCV 1a NS3 protease; parameters: species or system Hepatitis C virus subtype 1a
[4] = tested on: Hepatitis C virus; experiment: Inhibition of HCV 1b NS3 protease; parameters: species or system Hepatitis C virus subtype 1b

NS3, sequence (A3EZJ3 whole entry): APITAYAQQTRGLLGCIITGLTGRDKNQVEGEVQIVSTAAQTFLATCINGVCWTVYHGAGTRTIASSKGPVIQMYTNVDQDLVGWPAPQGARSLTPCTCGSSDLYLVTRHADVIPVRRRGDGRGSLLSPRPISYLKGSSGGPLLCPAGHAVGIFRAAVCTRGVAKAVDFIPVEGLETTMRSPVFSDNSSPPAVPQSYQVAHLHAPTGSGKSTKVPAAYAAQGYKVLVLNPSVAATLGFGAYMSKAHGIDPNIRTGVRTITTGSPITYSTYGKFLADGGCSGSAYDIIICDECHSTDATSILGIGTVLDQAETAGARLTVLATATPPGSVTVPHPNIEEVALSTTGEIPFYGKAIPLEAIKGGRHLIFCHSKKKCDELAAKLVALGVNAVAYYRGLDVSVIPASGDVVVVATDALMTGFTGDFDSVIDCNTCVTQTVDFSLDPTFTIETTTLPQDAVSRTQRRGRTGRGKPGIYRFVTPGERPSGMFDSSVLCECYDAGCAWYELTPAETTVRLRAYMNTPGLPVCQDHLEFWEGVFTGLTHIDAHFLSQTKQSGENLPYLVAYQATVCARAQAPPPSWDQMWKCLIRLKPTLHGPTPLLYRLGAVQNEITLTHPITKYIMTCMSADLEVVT

| SMILES | pEC50 [1] | pKi [2] | pKi [3] | pKi [4] |
| --- | --- | --- | --- | --- |
| C=C[C@@H]1C[C@]1(NC(=O)[C@@H](NC(=O)[C@@H](NC(=O)OC(C)(C)C)C(C)(C)C)c1ccc(Oc2nc(Cl)cc3ccccc23)cc1)C(=O)NS(=O)(=O)C1CC1 | < 5.00 | 6.39 |  |  |
| COc1ccc2c(Oc3ccc([C@@H]4NC(=O)[C@@H](NC(=O)OC(C)(C)C)CCCCC/C=C\[C@@H]5C[C@@]5(C(=O)NS(=O)(=O)C5CC5)NC4=O)cc3)cc(-c3ccccc3)nc2c1 | 5.34 | 7.12 |  |  |
| COc1ccc2c(Oc3ccc(C(NC(=O)[C@@H](NC(=O)OC(C)(C)C)C(C)(C)C)C(=O)N[C@@H](CC(F)F)C(=O)O)cc3)cc(-c3ccccc3)nc2c1 (stereo partly specified) |  | 5.55 |  |  |
| CC(C)(C)OC(=O)N[C@H]1CCCCC/C=C\[C@@H]2C[C@@]2(C(=O)O)NC(=O)[C@H](c2ccc(Oc3nc(Cl)cc4ccccc34)cc2)NC1=O |  | 5.96 |  |  |
| CC[C@H](C)[C@H](NC(=O)[C@@H](NC(=O)CCC(=O)O)C1CCCCC1)C(=O)N1CCC[C@H]1C(=O)N[C@@H](CS)C(=O)O (Suc-[Chg]IPC-OH) |  | 4.64 |  |  |
| CCC[C@H](NC(=O)[C@@H](NC(=O)[C@@H](NC(=O)OC(C)(C)C)C(C)C)c1ccc(Oc2cc(-c3ccccc3)nc3cc(OC)ccc23)cc1)C(=O)NS(=O)(=O)c1ccccc1 |  | 6.55 |  |  |
| C=C[C@@H]1C[C@]1(NC(=O)[C@@H]1C[C@@H](Oc2cc(-c3ccccc3)nc3cc(OC)ccc23)CN1C(=O)[C@@H](NC(=O)OC(C)(C)C)C(C)C)C(=O)NS(=O)(=O)c1ccccc1 |  | 9.12 |  |  |
| COc1ccc2c(Oc3ccc([C@@H]4NC(=O)[C@@H](NC(=O)OC(C)(C)C)CCCCC/C=C\[C@@H]5C[C@@]5(C(=O)NS(=O)(=O)c5ccccc5)NC4=O)cc3)cc(-c3ccccc3)nc2c1 | < 5.00 | 7.02 |  |  |
| CC(C)(C)OC(=O)N[C@H]1CCCCC/C=C\[C@@H]2C[C@@]2(C(=O)NS(=O)(=O)C2CC2)NC(=O)[C@H](c2ccc(Oc3nc(Cl)cc4ccccc34)cc2)NC1=O | < 5.00 | 7.13 |  |  |
| CC[C@@H](C)[C@H](NC(=O)[C@@H](NC(=O)CCC(=O)O)C1CCCCC1)C(=O)N[C@H](C(=O)N[C@@H](CS)C(=O)O)c1ccccc1 |  | 6.00 |  |  |
| C=C[C@@H]1C[C@]1(NC(=O)[C@H](NC(=O)[C@@H](NC(=O)OC(C)(C)C)C(C)C)c1ccc(Oc2cc(-c3ccccc3)nc3cc(OC)ccc23)cc1)C(=O)NS(=O)(=O)c1ccccc1 | < 5.00 | 6.40 |  |  |
| COc1ccc2c(Oc3ccc([C@@H]4NC(=O)[C@@H](NC(=O)OC(C)(C)C)CCCCC/C=C\[C@@H]5C[C@@]5(C(=O)O)NC4=O)cc3)cc(-c3ccccc3)nc2c1 | < 5.00 | 6.10 |  |  |
| C=C[C@@H]1C[C@]1(NC(=O)[C@@H](NC(=O)[C@@H](NC(=O)OC(C)(C)C)C(C)(C)C)c1ccc(OC)cc1)C(=O)NS(=O)(=O)C1CC1 |  | 5.27 |  |  |
| CC(C)(C)OC(=O)N[C@H]1CCCCC/C=C\[C@@H]2C[C@@]2(C(=O)O)NC(=O)[C@H](c2ccc(Oc3nc(-c4ccncc4)cc4ccccc34)cc2)NC1=O |  | 5.89 |  |  |
| C=C[C@@H]1C[C@]1(NC(=O)[C@@H](NC(=O)[C@@H](NC(=O)OC(C)(C)C)C(C)(C)C)c1ccc(Oc2ccccn2)cc1)C(=O)NS(=O)(=O)C1CC1 |  | 5.15 |  |  |
| COc1ccc2c(O[C@@H]3C[C@H]4C(=O)N[C@]5(C(=O)O)C[C@H]5/C=C\CCCCC[C@H](NC(=O)OC5CCCC5)C(=O)N4C3)cc(-c3csc(NC(C)C)n3)nc2c1 [CILUPREVIR] |  |  | 9.52 | 9.18 |

| SMILES | pEC50 [1] | pKi [2] | pKi [3] | pKi [4] |
| --- | --- | --- | --- | --- |
| C=C[C@@H]1C[C@]1(NC(=O)[C@@H](NC(=O)[C@@H](NC(=O)OC(C)(C)C)C(C)(C)C)c1ccc(Oc2cc(-c3ccccc3)nc3cc(OC)ccc23)cc1)C(=O)NS(=O)(=O)C1CC1 | < 5.00 | 6.74 |  |  |
| C=C[C@@H]1C[C@]1(NC(=O)[C@H](NC(=O)[C@@H](NC(=O)OC(C)(C)C)C(C)(C)C)c1ccc(OC)cc1)C(=O)NS(=O)(=O)C1CC1 |  | 4.47 |  |  |
| C=C[C@@H]1C[C@]1(NC(=O)[C@H](NC(=O)[C@@H](NC(=O)OC(C)(C)C)C(C)(C)C)c1ccc(Oc2nc(Cl)cc3ccccc23)cc1)C(=O)NS(=O)(=O)C1CC1 |  | 5.96 |  |  |
| CCC[C@H](NC(=O)[C@@H]1C[C@@H](Oc2cc(-c3ccccc3)nc3cc(OC)ccc23)CN1C(=O)[C@@H](NC(=O)OC(C)(C)C)C(C)C)C(=O)NS(=O)(=O)c1ccccc1 |  | 6.52 |  |  |
| C=C[C@@H]1C[C@]1(NC(=O)[C@@H](NC(=O)[C@@H](NC(=O)OC(C)(C)C)C(C)C)c1ccc(Oc2cc(-c3ccccc3)nc3cc(OC)ccc23)cc1)C(=O)NS(=O)(=O)C1CC1 |  | 6.70 |  |  |
| C=C[C@@H]1C[C@]1(NC(=O)[C@@H](NC(=O)[C@@H](NC(=O)OC(C)(C)C)C(C)(C)C)c1ccc(Oc2nc(-c3ccncc3)cc3ccccc23)cc1)C(=O)NS(=O)(=O)C1CC1 | < 5.00 | 6.54 |  |  |
| C=C[C@@H]1C[C@]1(NC(=O)[C@@H](NC(=O)[C@@H](NC(=O)OC(C)(C)C)C(C)(C)C)c1ccc(Oc2cccc(Cl)n2)cc1)C(=O)NS(=O)(=O)C1CC1 |  | 5.59 |  |  |
| C=C[C@@H]1C[C@]1(NC(=O)C(NC(=O)[C@@H](NC(=O)OC(C)(C)C)C(C)C)c1ccc(Oc2cc(-c3ccccc3)nc3cc(OC)ccc23)cc1)C(=O)O (stereo partly specified) | 5.07 | 5.62 |  |  |
| C=C[C@@H]1C[C@]1(NC(=O)[C@@H](NC(=O)[C@@H](NC(=O)OC(C)(C)C)C(C)(C)C)c1ccc(Oc2cc(-c3ccccc3)nc3cc(OC)ccc23)cc1)C(=O)NS(=O)(=O)c1ccccc1 | < 5.00 | 6.64 |  |  |
| COc1ccc2c(Oc3ccc([C@H](NC(=O)[C@@H](NC(=O)OC(C)(C)C)C(C)(C)C)C(=O)N[C@@H](CC(F)F)C(=O)NS(=O)(=O)C4CC4)cc3)cc(-c3ccccc3)nc2c1 | < 5.00 | 6.11 |  |  |
| CCC[C@H](NC(=O)[C@@H](NC(=O)[C@@H](NC(=O)OC(C)(C)C)C(C)(C)C)c1ccc(Oc2cc(-c3ccccc3)nc3cc(OC)ccc23)cc1)C(=O)NS(=O)(=O)c1ccccc1 | < 5.00 | 6.64 |  |  |
| CC(C)(C)OC(=O)N[C@H]1CCCCC/C=C\[C@@H]2C[C@@]2(C(=O)NS(=O)(=O)C2CC2)NC(=O)[C@H](c2ccc(Oc3nc(-c4ccncc4)cc4ccccc34)cc2)NC1=O |  | 6.62 |  |  |
| CCC[C@H](NC(=O)[C@@H](NC(=O)[C@@H](NC(=O)OC(C)(C)C)C(C)C)c1ccc(O)cc1)C(=O)NS(=O)(=O)c1ccccc1 |  | 3.89 |  |  |
| C=C[C@@H]1C[C@]1(NC(=O)[C@@H](NC(=O)[C@@H](NC(=O)OC(C)(C)C)C(C)C)c1ccc(Oc2cc(-c3ccccc3)nc3cc(OC)ccc23)cc1)C(=O)NS(=O)(=O)c1ccccc1 | < 5.00 | 6.57 |  |  |
| COc1ccc2c(Oc3ccc([C@H](NC(=O)[C@@H](NC(=O)OC(C)(C)C)C(C)(C)C)C(=O)NC4(C(=O)NS(=O)(=O)c5ccccc5)CC4)cc3)cc(-c3ccccc3)nc2c1 | < 5.00 | 5.92 |  |  |

Reference: ChEMBL document CHEMBL1146301, “Phenylglycine as a novel P2 scaffold in hepatitis C virus NS3 protease inhibitors” (Bioorg Med Chem, 2007)
